Key:
microbial growth = experiment: single microbiological assay of the antimicrobial activity of the synthesized DMH/Ag complex; assay type: cell-based
[1] = levels of dissolved silver with halogenated hydantoins and a source of silver; assay type: physicochemical
Text: Hydantoin structures are also known as complexing agents in silver-plating processes (R. J. Morrissey, U.S. Patent Application Publication no. 2005/0183961). […] While not fully understood it is believed that the aforementioned increased in solubility is due to a soluble complex or association between silver and hydantoin ring structures since it has been found the silver remains soluble to a higher degree than expected thus making more silver ions available for killing harmful microorganism.
DMH is a chemical derivative of hydantoin comprising of a hydantoin ring with two methyl groups attached at the number five position of the ring. DMH is a component of Bromochlordimethyl hydantoin (BCDMH), organic source bromine utilized for disinfecting spa water. […] Additional research performed by the Applicant seems to indicate that the DMH portion of the BCDMH molecule alone may be responsible for the increased solubility of silver. The mechanism of increased silver solubility appears to involve the formation of a DMH/silver complex that has a higher solubility in water than silver salts such as […] or silver chloride. It is should be noted that the antimicrobial activity tends to increase with soluble silver concentration.

bacteria in the pool = experiment: 32,000 gallon outdoor pool sanitized with FROG minerals, chlorine and DMH; bacteria monitored over three months; conditions: about 10 ppm to 12 ppm DMH added to pool treated with FROG minerals (silver chloride on limestone carrier) and chlorine; free chlorine as low as 0.1 ppm; three month period
Description: A 32,000 gallon outdoor pool was sanitized using commercially available FROG™ minerals and chlorine. The FROG™ Minerals included silver chloride on a limestone carrier. In addition to the conventional sanitizing treatment using silver chloride and chlorine sufficient DMH was added to the pool to bring the DMH content of the pool to a level of about 10 ppm to 12 ppm DMH in the pool. The free chlorine, total chlorine, pH and the bacteria in the pool were monitored over a three month period. During the period both humans and animals swam in the pool.

[2] = cited from earlier work
[3] = used in conjunction with a source of silver

For “Silver dimethylhydantoin [synthesized DMH/Ag complex]”, the “antimicrobial activity compared to the equivalent level of silver used alone” value (microbial growth; synthesized complex) was “greater antimicrobial activity” and the “control of microbial growth” value (microbial growth; without added source of halide) was “has the potential to control microbial growth without the need for an added source of halide”.

For `CC1(C)C(=O)N(Cl)C(=O)N1Cl` [DCDMH, 1,3 dichloro-5,5 dimethylhydantoin], the “levels of dissolved silver” value [1, 3] was “tend to increase levels of dissolved silver”.

For `CC1(C)C(=O)N(Cl)C(=O)N1Br` [BCDMH, 1-bromo-3-chloro-5,5dimethylhydantoin], the “levels of dissolved silver” value ([1]; combined with silver ions in spa water containing bromine) was “higher than would be anticipated” and the “levels of dissolved silver” value [1, 3] was “tend to increase levels of dissolved silver”.

With `CC1(C)NC(=O)NC1=O` [DMH, 5,5-dimethylhydantoin] the total bacteria count (bacteria in the pool) was “zero”.

For `O=C1CNC(=O)N1` [Hydantoin], the solubility in water [2] is given as “slightly soluble in water”.

Source: patent publication US9187351B2, “Water treatment” (KING TECHNOLOGY INC., priority 2004, dated 2015)
